Common to all, as to assay: relative viability (nuclei count vs DMSO), 5 days (fraction); higher = more cells survive
Compound in one test: C1=CC(=CC=C1NC(=S)NNC2=C(C=C(C=C2[N+](=O)[O-])C(F)(F)F)[N+](=O)[O-])F [Kobe2602]
An outline of the steps: (§1)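 Viability here means nuclei in treated wells divided by nuclei in vehicle wells, reported as the median across plates. Only plates with control CV below 25% and at least one doubling passed. Lung cancer cell lines in 1536-well plates were exposed to five √10-spaced library-drug doses for 5 days and counted from 4× Hoechst images in MetaXpress.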

Compound in a further test: COc1cc2nccc(Oc3ccc(NC(=O)C4(C(=O)Nc5ccc(F)cc5)CC4)cc3)c2cc1OC [Cabozantinib]
In outline: as §1

Compound in another test: O[C@@H](COc1cccc2ncccc12)CN1CCN([C@@H]2c3ccccc3[C@@H]3[C@H](c4ccccc42)C3(F)F)CC1 [Zosuquidar]
An outline of the steps:
as §1

Compound in the test “Kobe2602 + Alpelisib”: C1=CC(=CC=C1NC(=S)NNC2=C(C=C(C=C2[N+](=O)[O-])C(F)(F)F)[N+](=O)[O-])F [Kobe2602] + Cc1nc(NC(=O)N2CCC[C@H]2C(N)=O)sc1-c1ccnc(C(C)(C)C(F)(F)F)c1 [Alpelisib] (partner 2 µM)
In outline:
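Lung cancer cell lines in 1536-well plates got either a single drug or a fixed anchor-drug dose together with five library-drug doses (not always all listed) in √10 steps, by pin tool, on the day after seeding. Nuclei were counted after 5 days, and relative viability is the treated-to-vehicle ratio of nuclei counts. Values are medians of duplicate plates.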

Results on one cell line are retold here after the supplement of paper PMC10307832.

Consider UMC-11, for which the relative viability with Kobe2602 (0.2 µM) worked out at 1.05; with Kobe2602 (0.6325 µM), 1.01; with Kobe2602 (2 µM), 1.06; in the test with Kobe2602 (6.325 µM), 0.975; with Kobe2602 (20 µM), 1.05; with Cabozantinib (0.02 µM), 0.989. The relative viability in the test with Cabozantinib (0.06325 µM) is 1.11; in the test with Cabozantinib (0.2 µM) it was 0.963; with Cabozantinib (0.6325 µM) it was 1.04; with Cabozantinib (2 µM), 1; with Zosuquidar (0.01 µM), 0.957; with Zosuquidar (0.03162 µM), 1.04. Also, the relative viability with Zosuquidar (0.1 µM) came to 0.908; with Zosuquidar (0.3162 µM) it was 1.11; with Zosuquidar (1 µM), 0.96; in the test with Kobe2602 + Alpelisib (first compound 0.2 µM), 1; with Kobe2602 + Alpelisib (first compound 0.6325 µM), 1.03; with Kobe2602 + Alpelisib (first compound 2 µM), 0.954. In addition, the results for the relative viability with Kobe2602 + Alpelisib (first compound 6.325 µM) and with Kobe2602 + Alpelisib (first compound 20 µM) were 0.94 and 0.976, respectively.
